Several values for one entry are separate records, joined by “and”; a condition that tells them apart may be missing. Identical values can stand only once. Like-named read-outs stand apart in the source and are kept apart here.
How the values were obtained:
[1] = Pharmacokinetics in ICR mice after intravenous and intragastric administration; type: in vivo; conditions: for MRT last: read-out: MRT(0-t); for MRT inf: read-out: MRT(0-∞); for Tmax: read-out: Tmax; for Vd: read-out: Vz
How it was run: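 Male ICR mice (6-9 weeks, 20-30 g, n=3 per route) were fasted overnight and dosed at 2 mg/kg i.v. or 5 mg/kg intragastrically in 5% DMSO/40% PEG400/55% (10% HP-β-CD in saline). Plasma levels were measured by LC-MS/MS after protein precipitation (LLOQ 1 ng/mL), and non-compartmental PK parameters were calculated.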

[2] = system: human osteosarcoma cell line SJSA-1; assay: Inhibition of proliferation of human osteosarcoma cell line SJSA-1 (DAPI staining, In Cell Analyzer); conditions: Homo sapiens, SJSA-1, 72 h, read-out: IC50 (nM), inhibitory activity on proliferation of human osteosarcoma cell line SJSA-1, SJSA-1, incubated 72 h
MDM2 = molecular target: T1, MDM2 (Homo sapiens, UniProt Q00987); assay: Inhibition test of MDM2-P53 (GST-MDM2, Biotin-P53, Anti-GST-Tb, SA-XL665); type: binding
T1 construct: made in house
T1 sequence (Q00987 whole entry): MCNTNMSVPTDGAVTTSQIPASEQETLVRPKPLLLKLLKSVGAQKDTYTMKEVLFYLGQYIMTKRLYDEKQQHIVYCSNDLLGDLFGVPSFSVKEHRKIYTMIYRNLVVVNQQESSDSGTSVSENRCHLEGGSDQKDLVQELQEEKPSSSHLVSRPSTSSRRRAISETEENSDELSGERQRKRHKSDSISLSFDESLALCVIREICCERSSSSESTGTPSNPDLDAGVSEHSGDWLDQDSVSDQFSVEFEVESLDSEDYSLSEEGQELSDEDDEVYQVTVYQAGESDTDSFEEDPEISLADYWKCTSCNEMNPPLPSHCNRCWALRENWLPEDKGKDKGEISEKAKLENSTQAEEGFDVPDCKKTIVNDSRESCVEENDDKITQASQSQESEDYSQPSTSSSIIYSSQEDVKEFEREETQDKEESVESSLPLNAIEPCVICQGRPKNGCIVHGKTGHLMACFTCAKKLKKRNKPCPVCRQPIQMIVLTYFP
How it was run: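 Compounds, serially diluted 5-fold (twelve concentrations), were shaken for 90 min at 25° C with a mix of GST-MDM2 (4 nM final), Biotin-P53, anti-GST-Tb and SA-XL665. Buffer: 1×PBS, 0.1% BSA, 5 mM DTT, 1 mM AEBSF; signal read on a microplate reader.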

[3] = ICR mice, IV 2 mg/kg, individual animals 301-303, 2 mg/kg
[4] = ICR mice, PO 5 mg/kg, individual animals 401-403, 5 mg/kg
[5] = male, ICR, mouse, plasma, iv, 2 mg/kg, ICR mice, IV 2 mg/kg, individual animals 301-303
[6] = male, ICR, mouse, plasma, iv, 2 mg/kg, ICR mice, IV 2 mg/kg, mean of 3 animals
[7] = male, ICR, mouse, plasma, po, 5 mg/kg, ICR mice, PO 5 mg/kg, individual animals 401-403
[8] = male, ICR, mouse, plasma, po, 5 mg/kg, ICR mice, PO 5 mg/kg, mean of 3 animals

SMILES: COc1cc(OC(C)C)ncc1-c1nc2c(n1C(C)C)[C@@]1(C(=O)Nc3cc(Cl)ccc31)N(c1cc(Cl)cnc1C)C2=O [Example S-137, (S)-6-chloro-5′-(5-chloro-2-methylpyridin-3-yl)-2′-(6-isopropoxy-4-methoxypyridin-3-yl)-3′-isopropyl-3′H-spiro[dihydroindole-3,4′-pyrrolo[3,4-d]imidazole]-2,6′(5′H)-dione]
- AUC(0-t) [1, 3]: 15555.08 ng·h/mL and 10168.14 ng·h/mL
- AUC(0-∞) [1, 3]: 15581.80 ng·h/mL and 10938.18 ng·h/mL
- CL [1, 3]: 2.14 mL/min/kg and 3.05 mL/min/kg
- Cmax [1, 3]: 5945.51 ng/mL and 5653.28 ng/mL
- MRT(0-t) [1, 3]: 2.84 h and 1.50 h
- MRT(0-∞) [1, 3]: 2.88 h and 1.97 h
- Vz [1, 3]: 0.52 L/kg and 0.41 L/kg
- t1/2 [1, 3]: 2.79 h and 1.57 h
- F* ([1]; ICR mice, PO 5 mg/kg vs IV 2 mg/kg, mean): 53.35%
- AUC(0-t) [1, 4]: 16097.34 ng·h/mL and 14779.57 ng·h/mL
- AUC(0-∞) [1, 4]: 17159.38 ng·h/mL and 15367.65 ng·h/mL
- Cmax [1, 4]: 5542.83 ng/mL and 6791.01 ng/mL
- MRT(0-t) [1, 4]: 2.31 h and 2.03 h
- MRT(0-∞) [1, 4]: 2.84 h and 2.35 h
- t1/2 [1, 4]: 1.98 h and 1.69 h
- AUC(0-inf) [1, 5]: 9740 ng·h/mL
- clearance [1, 5]: 3.42 mL/min/kg
- AUC(0-t) ([1]; male, ICR, mouse, plasma, iv, 2 mg/kg, ICR mice, IV 2 mg/kg, individual animals 301-303, read-out: AUC(0-t)): 8960 ng·h/mL
- Cmax ([1]; male, ICR, mouse, plasma, iv, 2 mg/kg, ICR mice, IV 2 mg/kg, individual animals 301-303, read-out: Cmax): 5260 ng/mL
- MRT last [1, 5]: 1.51 h
- MRT inf [1, 5]: 2.06 h
- Tmax [1, 5]: 0.08 h
- Vd [1, 5]: 0.5 L/kg
- half-life ([1]; male, ICR, mouse, plasma, iv, 2 mg/kg, ICR mice, IV 2 mg/kg, individual animals 301-303, read-out: t1/2 (converted)): 1.68 h
- AUC(0-inf) [1, 6]: 12100 ng·h/mL
- clearance [1, 6]: 2.87 mL/min/kg
- AUC(0-t) ([1]; male, ICR, mouse, plasma, iv, 2 mg/kg, ICR mice, IV 2 mg/kg, mean of 3 animals, read-out: AUC(0-t)): 11600 ng·h/mL
- Cmax ([1]; male, ICR, mouse, plasma, iv, 2 mg/kg, ICR mice, IV 2 mg/kg, mean of 3 animals, read-out: Cmax): 5620 ng/mL
- MRT last [1, 6]: 1.95 h
- MRT inf [1, 6]: 2.3 h
- Tmax [1, 6]: 0.083 h
- Vd [1, 6]: 0.48 L/kg
- half-life ([1]; male, ICR, mouse, plasma, iv, 2 mg/kg, ICR mice, IV 2 mg/kg, mean of 3 animals, read-out: t1/2 (converted)): 2.01 h
- AUC(0-inf) [1, 7]: 16200 ng·h/mL
- AUC(0-t) ([1]; male, ICR, mouse, plasma, po, 5 mg/kg, ICR mice, PO 5 mg/kg, individual animals 401-403, read-out: AUC(0-t)): 15400 ng·h/mL
- Cmax ([1]; male, ICR, mouse, plasma, po, 5 mg/kg, ICR mice, PO 5 mg/kg, individual animals 401-403, read-out: Cmax): 5880 ng/mL
- MRT last [1, 7]: 2.28 h
- MRT inf [1, 7]: 2.7 h
- Tmax [1, 7]: 0.5 h
- half-life ([1]; male, ICR, mouse, plasma, po, 5 mg/kg, ICR mice, PO 5 mg/kg, individual animals 401-403, read-out: t1/2 (converted)): 1.85 h
- AUC(0-inf) [1, 8]: 16200 ng·h/mL
- AUC(0-t) ([1]; male, ICR, mouse, plasma, po, 5 mg/kg, ICR mice, PO 5 mg/kg, mean of 3 animals, read-out: AUC(0-t)): 15400 ng·h/mL
- Cmax ([1]; male, ICR, mouse, plasma, po, 5 mg/kg, ICR mice, PO 5 mg/kg, mean of 3 animals, read-out: Cmax): 6070 ng/mL
- MRT last [1, 8]: 2.21 h
- MRT inf [1, 8]: 2.63 h
- Tmax [1, 8]: 0.5 h
- half-life ([1]; male, ICR, mouse, plasma, po, 5 mg/kg, ICR mice, PO 5 mg/kg, mean of 3 animals, read-out: t1/2 (converted)): 1.84 h
- AUC(0-t) ([1]; male, ICR, mouse, plasma, po, 5 mg/kg, oral intragastric administration 5 mg/kg, read-out: AUC0-t): 15400 ng·h/mL
- half-life ([1]; male, ICR, mouse, plasma, po, 5 mg/kg, oral intragastric administration 5 mg/kg, read-out: half-life (converted)): 1.84 h
- IC50 [2]: 65.9 nM
- IC50 (MDM2): 1.65 nM
